Data reported in article PMC10280131 (RSC Advances, 2023).
Marks after values point to notes of the source that are not given here.

How the values were obtained:
[1] = target: Acetylcholinesterase (AChE) (Homo sapiens, UniProt P22303); assay: Acetylcholinesterase inhibition screening; format: biochemical
[2] = Antioxidant assay by DPPH scavenging
male Wistar rats = format: in vivo, rat
[3] = test system: liver, kidneys, heart, and brain; assay: Histopathological examination of chronic toxicity study; format: in vivo, mice; conditions: H&E
AD-induced rats = assay: T-maze test in AlCl3-induced AD rats; format: in vivo, rat; conditions: Treatment 4 weeks; for T-maze test, time taken to reach food: seconds, n = 10
[4] = test system: Alzheimer's disease-induced rats; assay: Beam balance test in AlCl3-induced AD rats; format: in vivo, rat; conditions: Treatment 4 weeks
[5] = test system: brain tissue of AD-induced rats; assay: Brain oxidative stress markers; format: in vivo, rat
Bcl-2 gene = Bcl-2 gene expression in brain samples of AD induced rats; format: in vivo, rat; conditions: AD rats treated vs AD rats
Bax gene = Bax gene expression in brain samples of AD induced rats; format: in vivo, rat; conditions: AD rats treated vs AD rats
Tau gene = Tau gene expression in brain samples of AD induced rats; format: in vivo, rat; conditions: AD rats treated vs AD rats
Wistar rats = assay: Acute toxicity, oral, rats
[6] = male rats, 10 mg per kg body weight
[7] = male rats, 10 mg per kg body weight, one month

Acetylcholinesterase (AChE), sequence (P22303 32-614, species assumed): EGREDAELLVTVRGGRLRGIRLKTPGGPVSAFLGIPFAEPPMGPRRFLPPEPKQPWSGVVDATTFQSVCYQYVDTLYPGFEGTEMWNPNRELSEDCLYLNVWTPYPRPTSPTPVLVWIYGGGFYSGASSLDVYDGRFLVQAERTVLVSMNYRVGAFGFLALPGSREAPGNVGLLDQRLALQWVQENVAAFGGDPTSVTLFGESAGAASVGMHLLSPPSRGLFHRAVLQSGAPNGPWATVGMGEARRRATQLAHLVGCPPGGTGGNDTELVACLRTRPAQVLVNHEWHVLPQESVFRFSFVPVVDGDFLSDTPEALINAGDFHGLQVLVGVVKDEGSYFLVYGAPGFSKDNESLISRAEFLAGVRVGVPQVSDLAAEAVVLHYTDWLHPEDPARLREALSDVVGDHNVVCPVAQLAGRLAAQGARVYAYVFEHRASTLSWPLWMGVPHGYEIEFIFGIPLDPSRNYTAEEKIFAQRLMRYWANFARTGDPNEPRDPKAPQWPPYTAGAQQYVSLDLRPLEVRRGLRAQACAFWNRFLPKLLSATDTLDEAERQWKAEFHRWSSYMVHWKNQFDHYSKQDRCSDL

Cc1cc(=O)oc2cc(OCC(=O)NN=C3CCCc4ccccc43)ccc12 [Compound 4a, N′-(3,4-dihydronaphthalen-1(2H)-ylidene)-2-((4-methyl-2-oxo-2H-chromen-7-yl)oxy)acetohydrazide]
IC50 [1]: 13.1 µM | Percent of antioxidant activity (DPPH scavenging) ([2]; Concentration (0.01 mg)): 31.8 ± 0.2% | Percent of antioxidant activity (DPPH scavenging) ([2]; Concentration (0.05 mg)): 40.9 ± 3.1%

Cc1cc(=O)oc2cc(OCC(=O)NN=C3C(=O)Nc4ccccc43)ccc12 [Compound 4b, 2-((4-Methyl-2-oxo-2H-chromen-7-yl)oxy)-N′-(2-oxoindolin-3-ylidene) acetohydrazide]
IC50 [1]: 20.9 µM | Percent of antioxidant activity (DPPH scavenging) ([2]; Concentration (0.01 mg)): 31.8 ± 1.2% | Percent of antioxidant activity (DPPH scavenging) ([2]; Concentration (0.05 mg)): 35.00 ± 1.00%

Cc1cc(=O)oc2cc(OCC(=O)NN=C3CCc4ccccc43)ccc12 [Compound 4c, N′-(2,3-Dihydro-1H-inden-1-ylidene)-2-((4-methyl-2-oxo-2H-chromen-7-yl)oxy)acetohydrazide]
IC50 [1]: 2.21 µM | Percent of antioxidant activity (DPPH scavenging) ([2]; Concentration (0.01 mg)): 28.00 ± 0.4% | Percent of antioxidant activity (DPPH scavenging) ([2]; Concentration (0.05 mg)): 57.14 ± 2.77% | Signs of chronic toxicity (male Wistar rats; 10 mg per kg b.wt orally, male Wistar rats, one month): didn't see any indication of harmfulness | Change in blood profile levels vs control rats (male Wistar rats; 10 mg per kg b.wt, one month): insignificant changes | Change in creatinine level vs untreated group (male Wistar rats; 10 mg per kg b.wt, one month): significant increase | Change in hepatic enzyme levels (AST, ALT, and ALP) vs control group (male Wistar rats; 10 mg per kg b.wt, one month): insignificant difference | Change in total urea level vs untreated group (male Wistar rats; 10 mg per kg b.wt, one month): insignificant change | ALP (male Wistar rats; [6]): 136.00 ± 9.00 ^a U/l | ALT (male Wistar rats; [6]): 79.00 ± 4.40 ^a U/l | AST (male Wistar rats; [6]): 32.00 ± 1.20 ^a U/l | Creatinine (male Wistar rats; [6]): 2.80 ± 0.07 mg/dL | Urea (male Wistar rats; [6]): 20.00 ± 1.57 mg/dL | Haematocrit (male Wistar rats; [7]): 45.00 ± 1.87 ^a % | Hemoglobin (Hb) (male Wistar rats; [7]): 14.58 ± 0.59 ^a g L^−1 | Lymphocyte (male Wistar rats; [7]): 7.62 ± 0.66 ^a 10^3 cm^−1 | MPV (male Wistar rats; [7]): 8.66 ± 0.19 ^a fL | Mean corpuscular hemoglobin (MCH) (male Wistar rats; [7]): 17.78 ± 0.88 ^a pg | Mean corpuscular hemoglobin concentration (MCHC) (male Wistar rats; [7]): 33.98 ± 0.25 ^a g dL^−1 | Mean corpuscular volume (MCV) (male Wistar rats; [7]): 59.00 ± 0.03 ^a fL | Monocyte (male Wistar rats; [7]): 1.93 ± 0.06 ^a 10^3 cm^−1 | Neutrophils (male Wistar rats; [7]): 2.39 ± 0.09 ^a 10^3 cm^−1 | Platelets (male Wistar rats; [7]): 465.00 ± 12.00 ^a 10^3 mm^−1 | RDW-CV (male Wistar rats; [7]): 15.80 ± 0.19 ^a % | Red blood cells (RBCs) (male Wistar rats; [7]): 8.00 ± 0.08 ^a million cells per mm | White blood cells WBCs (male Wistar rats; [7]): 10.89 ± 1.90 ^a 10^3 cmm^−1 | Heart and brain histopathology [3]: no histopathological damage | Kidney histopathology [3]: no histopathological alterations | Liver histopathology [3]: slight Kupffer cell proliferation | T-maze test, % improvement (AD-induced rats): 148.37% | T-maze test, time taken to reach food (AD-induced rats): 28.20 ± 1.80 Sc | Beam balance test time [4]: 8.99 ± 1.00 Sc | Beam balance test, % improvement [4]: 60.00% | GSH % improvement ([5]; AD-induced rats): 27.17% | MDA % improvement ([5]; AD-induced rats): 90.64% | GSH ([5]; AD-induced rats, n = 8): 21.66 ± 1.21 mg per g tissues | MDA ([5]; AD-induced rats, n = 8): 22.43 ± 1.66 mg per g tissues | GSH % change to disease ([5]; vs AD group): 59.26% | MDA % change to disease ([5]; vs AD group): 32.19% | Expression of Bcl-2 gene (Bcl-2 gene): improved expression | Expression of Bax gene (Bax gene): reduced expression | Expression of Tau gene (Tau gene): reduced expression | Mortality (Wistar rats; 50 mg per kg b.wt, rats): No mortality | Mortality (Wistar rats; 100 mg per kg b.wt, post 24 h, one rat of 4): 25%

Cc1cc(=O)oc2cc(OCC(=O)NN=Cc3ccc(C(=O)O)cc3)ccc12 [Compound 4d, 4-((2-(2-((4-Methyl-2-oxo-2H-chromen-7-yl)oxy)acetyl) hydrazineylidene)methyl) benzoic acid]
IC50 [1]: 3.15 µM | Percent of antioxidant activity (DPPH scavenging) ([2]; Concentration (0.01 mg)): 4.5 ± 0.4% | Percent of antioxidant activity (DPPH scavenging) ([2]; Concentration (0.05 mg)): 10.3 ± 0.33%

COc1cc2c(cc1OC)C(=O)C(CC1CCN(Cc3ccccc3)CC1)C2 (centres unmarked) [Donepezil, reference compound]
T-maze test, % improvement (AD-induced rats): 181.70% | T-maze test, time taken to reach food (AD-induced rats): 23.10 ± 1.70 Sc | Beam balance test time [4]: 9.80 ± 0.88 Sc | Beam balance test, % improvement [4]: 67.98%

O=C1O[C@H]([C@@H](O)CO)C(O)=C1O [Vitamin C, ascorbic acid, reference compound]
Percent of antioxidant activity (DPPH scavenging) ([2]; Concentration (0.01 mg)): 80.00 ± 5.00% | Percent of antioxidant activity (DPPH scavenging) ([2]; Concentration (0.05 mg)): 89.00 ± 6.99%
